# Results as given in paper PMC5760633, “Determining direct binders of the Androgen Receptor using a high-throughput Cellular Thermal Shift Assay” (Scientific Reports, 2018).
# Substitutions are numbered along the chain they refer to. Where two headings read alike, the source gives them in different places.
# Legend:
# [1] = tested on: AR-driven transcription (ARE-Luciferase); assay: AR-driven transcription ARE Luciferase reporter assay in CWR22Pc-R1-AD1 cells; format: cell-based, human;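 note: cells stably carrying an ARE-driven firefly luciferase reporter, with luminescence as read-out, tested in phenol red free RPMI containing 10% charcoal stripped FBS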
# Description: 15 µL 2x Steady-Glo® reagent (Promega) was added per well and incubated 15 min in the dark before reading luminescence using an EnVision platereader. Experiments were performed in phenol red free RPMI media supplemented with 10% charcoal stripped FBS.
# Androgen Receptor (AR) [2] = molecular target: T1, Androgen Receptor (AR) (Homo sapiens, UniProt P10275, H875Y); assay: CETSA HT ITDRF at 46 °C, antagonist mode in the presence of 1 nM DHT, CWR22Pc-R1-AD1 cells; format: binding; conditions: for IC50 / AR target engagement (CETSA HT), 2 h, IC50: 1 nM DHT; for AR target engagement (CETSA HT), 2 h, IC50: CWR22Pc-R1-AD1 cells
# T1 construct: exclusively expresses a structurally full-length AR containing a H874Y mutation; endogenous in cells; host or cells: CWR22Pc-R1-AD1
# T1 sequence (P10275 1-920 H875Y): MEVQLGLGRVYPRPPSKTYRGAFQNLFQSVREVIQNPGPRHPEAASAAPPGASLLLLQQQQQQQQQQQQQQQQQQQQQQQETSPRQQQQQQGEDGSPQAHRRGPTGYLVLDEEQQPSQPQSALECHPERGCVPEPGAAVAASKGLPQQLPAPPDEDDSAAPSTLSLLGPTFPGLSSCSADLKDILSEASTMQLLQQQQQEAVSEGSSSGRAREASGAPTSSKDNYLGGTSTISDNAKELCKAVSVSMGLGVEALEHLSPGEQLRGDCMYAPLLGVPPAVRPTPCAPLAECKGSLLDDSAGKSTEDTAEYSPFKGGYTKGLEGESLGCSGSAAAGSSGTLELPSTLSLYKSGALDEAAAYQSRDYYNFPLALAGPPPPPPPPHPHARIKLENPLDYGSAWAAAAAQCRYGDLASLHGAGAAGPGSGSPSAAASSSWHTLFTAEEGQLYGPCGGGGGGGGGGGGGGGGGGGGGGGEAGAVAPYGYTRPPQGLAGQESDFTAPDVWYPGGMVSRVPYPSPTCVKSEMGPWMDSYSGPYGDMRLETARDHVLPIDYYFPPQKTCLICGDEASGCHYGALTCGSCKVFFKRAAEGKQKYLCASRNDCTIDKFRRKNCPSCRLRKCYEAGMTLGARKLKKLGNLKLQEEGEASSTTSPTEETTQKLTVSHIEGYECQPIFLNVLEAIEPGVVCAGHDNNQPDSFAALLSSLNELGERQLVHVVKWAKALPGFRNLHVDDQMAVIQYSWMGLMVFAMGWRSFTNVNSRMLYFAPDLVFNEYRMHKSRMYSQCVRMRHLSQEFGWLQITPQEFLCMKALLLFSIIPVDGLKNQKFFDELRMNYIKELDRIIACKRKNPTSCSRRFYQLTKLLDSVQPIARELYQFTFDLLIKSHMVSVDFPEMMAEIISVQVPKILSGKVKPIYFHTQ
# Description: [sequence] experiments were performed in a plate-based, automation-compatible assay setup, as described in Supplementary Fig. S2e. […] Internal standard controls were included on each plate (Supplementary Fig. S10). […] 10 µL of cells were seeded per well of the PCR plate using a Multidrop Combi dispensor, covered with a plate lid, briefly centrifuged, and incubated under standard tissue culture conditions for 2 h or indicated timepoint. […] Cells were lysed by addition of 10 µL/well 2x SureFire Lysis Buffer using a Multidrop Combi. […] Antibody and AlphaScreen reagent, prepared as above, were added by Multidrop Combi (6 µL/well). Plates were incubated in the dark 16 h and analysed using an EnVision platereader.
# Androgen Receptor (AR) [3] = molecular target: T1, Androgen Receptor (AR); assay: CETSA HT ITDRF at 46 °C, agonist mode (no exogenous DHT), CWR22Pc-R1-AD1 cells; format: binding; conditions: for compound incubation time at which AR thermal stabilisation is seen: time-course
# Androgen Receptor (AR) [4] = molecular target: T2, Androgen Receptor (AR) (Homo sapiens, UniProt P10275, T878A); assay: CETSA HT ITDRF at 46 °C, agonist mode, LNCaP cells; format: binding; conditions: read-out: EC50 for AR thermal stabilisation (ITDRF CETSA), LNCaP cells, agonist alone
# T2 construct: an alternative AR-positive prostate cancer cell line, LNCaP; endogenous in cells; host or cells: LNCaP
# T2 sequence (P10275 1-920 T878A): T1 sequence (P10275 1-920 H875Y) with Y875H, T878A
# total cellular AR = assay: CETSA HT control without heat shock and without exogenous DHT (total AR); format: cell-based, human
# [5] = CWR22Pc-R1-AD1 cells, 1 nM DHT, 24 h; read-out: AR-driven transcription (ARE-Luciferase), 24 h, IC50
# [6] = Supplementary Table S1; 24 h, 1 nM DHT
# [7] = AR target engagement (CETSA HT), 2 h, IC50, CWR22Pc-R1-AD1 cells, 46 °C heat shock
# [8] = Supplementary Table S1, 2 h, 46 °C
# [9] = Homo sapiens, 24 h; read-out: AR-driven transcription (ARE-Luciferase), 24 h, IC50
# [10] = Homo sapiens, 24 h; read-out: ARE-Luciferase response pIC50 (converted)
# [11] = 2 h compound incubation, no exogenous DHT, no 46 °C heat shock
# [12] = Supplementary Table S1, 2 h, 46 °C, one technical repeat, read-out: CETSA HT response pIC50 (converted)
Structure (SMILES),"Conclusion: activity in ARE-Luciferase assay [1, 6]",IC50 (Androgen Receptor (AR) [2]; [7]),Conclusion: activity in CETSA HT (Androgen Receptor (AR) [2]; [8]),"IC50 [1, 9]","IC50 [1, 10]",also measured
CN(C)[C@H]1CN(C2CCc3cccc(F)c32)C[C@@H]1c1ccc(N2CCN(S(C)(=O)=O)CC2)cc1 (stereo partly drawn) [A-395],Inactive,,,,,"IC50 [1, 5]: > 30000 nM"
COc1ccc(/C=C/C(=O)/C=C(O)/C=C/c2ccc(OC)c(OC)c2)cc1OC [ACS-J9],Active,,,,,"IC50 [1, 5]: > 10000 nM"
C[C@]12CC[C@H](O)CC1=CC[C@@H]1[C@@H]2CC[C@]2(C)C(c3cccnc3)=CC[C@@H]12 [Abiraterone],Inactive,> 30000 nM,Inactive,> 30000 nM,,
C[C@]12CCC(=O)C=C1CC[C@@H]1[C@@H]2C(=O)C[C@]2(C)C(=O)CC[C@@H]12 [Andrenosterone],,,,,,"EC50 (Androgen Receptor (AR) [3]; agonist alone, read-out: EC50 for in-cell AR target engagement (ITDRF CETSA)): 50.6 nM; compound incubation time at which AR thermal stabilisation is seen (Androgen Receptor (AR) [3]): at least 30 minutes; compound incubation time at which AR thermal stabilisation is seen (Androgen Receptor (AR) [3]; listed as andrenosterone): 30 min; EC50 (Androgen Receptor (AR) [4]): 70.1 nM"
CO[C@@H](C(=O)N1Cc2n[nH]c(NC(=O)c3ccc(N4CCN(C)CC4)cc3)c2C1)c1ccccc1 [Danusertib],Active,> 30000 nM,Inactive,2600 nM,2570 nM,
CS(=O)(=O)c1ccc(-c2cnc(NCc3ccco3)n3cnnc23)cc1 [EED-226],Inactive,> 30000 nM,Inactive,> 30000 nM,,
CCN(c1cc(-c2ccc(CN3CCOCC3)cc2)cc(C(=O)NCc2c(C)cc(C)[nH]c2=O)c1C)C1CCOCC1 [EPZ-6438],Inactive,> 30000 nM,Inactive,,,
CN1CCN(c2ccc(C(=O)Nc3n[nH]c4ccc(Cc5cc(F)cc(F)c5)cc34)c(NC3CCOCC3)c2)CC1 [Entrectinib],Active,> 30000 nM,Inactive,11200 nM,11200 nM,effect on total AR (no heat shock) (total cellular AR; [11]): do not reduce total AR
CO[C@H]1CNC[C@@H](OCC2CCC(F)(F)CC2)[C@@H]1Nc1ncc(-c2cncc(C)c2)c2cc(C)c(=O)[nH]c12 [GSK8814],Inactive,> 30000 nM,Inactive,> 30000 nM,,
O=C(O)c1ccc(CN2CCC(CN[C@@H]3C[C@H]3c3ccccc3)CC2)cc1 [GSK2879522],Inactive,,,,,"IC50 [1, 5]: > 30000 nM"
CC[C@H](C)n1cc(C)c2c(C(=O)NCc3c(C)cc(C)[nH]c3=O)cc(-c3ccc(N4CCNCC4)nc3)cc21 [GSK-126],Inactive,,,,,"IC50 [1, 5]: > 30000 nM"
Cc1sc2c(c1C)C(c1ccc(Cl)cc1)=N[C@@H](CC(=O)OC(C)(C)C)c1nnc(C)n1-2 [JQ1],Partial,,,,,"IC50 [1, 5]: 302 nM"
C[C@](O)(COc1ccc(C#N)cc1)C(=O)Nc1ccc(C#N)c(C(F)(F)F)c1 [MK-2866],,,,,,"Conclusion: activity in CETSA HT (Androgen Receptor (AR) [2]): Active; temporal analysis of target engagement (competition of DHT) (Androgen Receptor (AR) [2]): increasing competition of DHT from AR over time; IC50 ([1]; Homo sapiens, 24 h, read-out: AR-driven transcription (ARE-Luciferase), 24 h, IC50): 170 nM; IC50 ([1]; Homo sapiens, 24 h, read-out: ARE-Luciferase response pIC50 (converted)): 170 nM; effect on total AR (no heat shock) (total cellular AR): do not reduce total AR"
CCNC(=O)c1noc(-c2cc(C(C)C)c(O)cc2O)c1-c1ccc(CN2CCOCC2)cc1 [NVP-AUY-922],Active,,Active,89 nM,89.1 nM,"AR target engagement (CETSA HT), 2 h, IC50 (Androgen Receptor (AR) [2]; 2 h, 46 °C heat shock): Reduces total AR; IC50 (Androgen Receptor (AR) [2]; [12]): 955 nM; effect on total AR (no heat shock) (total cellular AR; [11]): reduces total AR"
O=C(Nc1ccc([N+](=O)[O-])cc1Cl)c1cc(Cl)ccc1O [Niclosamide],Active,,,955 nM,955 nM,
Cc1sc2c(c1C)C(c1ccc(Cl)cc1)=N[C@@H](CC(=O)Nc1ccc(O)cc1)c1nnc(C)n1-2 [OTX-015],Partial,> 30000 nM,Inactive,214 nM,214 nM,
CC(C)c1cc(C(=O)N2Cc3ccc(CN4CCN(C)CC4)cc3C2)c(O)cc1O [Onalespib],Active,,Active,537 nM,537 nM,"AR target engagement (CETSA HT), 2 h, IC50 (Androgen Receptor (AR) [2]; 2 h, 46 °C heat shock): Reduces total AR; IC50 (Androgen Receptor (AR) [2]; [12]): 1050 nM; effect on total AR (no heat shock) (total cellular AR; [11]): reduces total AR"
C=CCNC1=C2C[C@@H](C)C[C@H](OC)[C@H](O)[C@@H](C)/C=C(\C)[C@H](OC(N)=O)[C@@H](OC)/C=C\C=C(/C)C(=O)NC(=CC1=O)C2=O [Tanespimycin],Active,,,3200 nM,3240 nM,
Cc1cc(-c2ncc(CC(=O)Nc3ccc(-c4cnccn4)cn3)cc2C)ccn1 [WNT-974],Inactive,> 30000 nM,Inactive,> 30000 nM,,
Oc1nc(-c2ccc(C(F)(F)F)cc2)nc2c1CSCC2 [XAV-939],Inactive,> 30000 nM,Inactive,> 30000 nM,,
